Measured values: paper PMC2361459, “Safety, tolerability and pharmacokinetics of intravenous ghrelin for cancer-related anorexia/cachexia: a randomised, placebo-controlled, double-blind, double-crossover study” (British Journal of Cancer, 2008)

Tests used:
[1] = tested on: growth hormone (GH); experiment: Serum growth hormone (GH) response to i.v. ghrelin (IRMA); type: in vivo, human
Experimental: (§1) Normal saline was used as placebo.
(§2) For ghrelin assays, 5 ml blood was collected in a precooled EDTA vacutainer tube containing aprotinin (33 kIU), placed immediately on ice, and centrifuged (4°C, 3000 G, 5 min). For each millilitre of plasma, 10 μl PMSF-Isopropanol, 50 μl 1N-HCL, and 50 μl aprotinin were added, and aliquots were stored at −80°C until batch analysis. Serum was collected and cooled for GH, insulin-like growth factor 1 (IGF-1), interleukin-6 (IL-6), and leptin analysis. Testosterone radioimmunoassays (Diagnostic Products Corporation; Bühlmann, Salzburg, Austria) were performed from serum sent to routine safety labs. The radioimmunoassay kits used for total and active ghrelin were from Linco Research (St Charles, MO, USA); for GH (active GH IRMA immunoradiometric assay) from Diagnostic Systems Laboratory (Webster, TX, USA); for IGF-1 (human, bovine) from Peninsula Laboratories (San Carlos, CA, USA); for IL-6 (Quantikine human ELISA) from R&D Systems (Minneapolis, MN, USA); and for leptin (human RIA) from Millipore (Billerica, MA, USA).
(§3) All analyses were performed with SPSS (Version 11.5).

[2] = parameters: species or system human; conditions: in vivo
Experimental: as §1, §2, §3

[3] = tested on: insulin-like growth factor 1; experiment: Serum insulin-like growth factor 1 (IGF-1) levels; type: in vivo, human
Experimental: as §2, §3

[4] = tested on: interleukin-6; experiment: Plasma IL-6 levels (ELISA); type: in vivo, human; conditions: throughout the treatment period; results not shown
Experimental: as §2

[5] = tested on: patients with advanced incurable cancer and anorexia/cachexia; experiment: Autonomic function: standard deviation of beat-to-beat intervals (SDNN); type: in vivo, human; conditions: UD (n=9), ghrelin, P=NS
Experimental: Autonomic dysfunction was assessed as described previously ([Strasser et al, 2006]). Standard deviation of beat-to-beat intervals (SDNN) was analysed at baseline and at end of study for 20 min in both the LD and UD; and in the UD, in addition, 30 min before infusion until after lunch on treatment days.
as §3

[6] = tested on: patients with advanced incurable cancer and anorexia/cachexia; experiment: Radiological tumour measurements; type: in vivo, human
Experimental: Patients were assessed at each visit by using the NCI-CTC toxicity criteria Version 3.0, including standard blood examinations (hematology, chemistry panels), and cardiology evaluations, including echocardiography at baseline and at end of study. […] On study day 7 and at end of study, patients were asked about their perception of their tolerance and preference of day 1 (and 7) vs day 4 (and 11) treatments. […] An independent radiologist reviewed all films made before baseline, at baseline, and at end of study to judge tumour size and dynamics.

[7] = tested on: patients with advanced incurable cancer and anorexia/cachexia; conditions: in vivo
Experimental: In a randomised, double-blind, placebo-controlled, double-crossover trial, 4–5 days after baseline, patients received ghrelin on days 1 and 8 and placebo on days 4 and 11 or vice versa; end of study was day 17/18 (Figure 1).
On treatment days, patients ingested only water from midnight to breakfast. In the outpatient clinic, safety laboratory values and fasting hormone blood samples (including testosterone in male patients) were drawn at 0800 hours; venous access was maintained for pharmacokinetics. Patients received a standardised breakfast (120 g bread, 20 g butter, 60 g jam, 200 ml coffee with milk). At 1000 hours, a second i.v. line was inserted in the other arm for treatment given from 1030 to 1130 hours. Immediately after the end of the infusion, patients walked for approximately 5 min the 90 m to the restaurant where they received priority serving, starting the meal within 5 min.
Ghrelin of Good Manufacturing Practice quality was purchased from Clinalfa (Merck Biosciences, Switzerland) as vials of 88 μg, stored at −20°C, and dissolved in 250 ml normal saline by the hospital pharmacy immediately before application. The treatment was titrated up within the first 10 min (20% increase each 2 min) and maintained for the next 50 min. The lower-dose group (LD) received 10 pmol kg^−1 min^−1 (equals 0.0336 μg kg^−1 min^−1, approximately 2 μg kg^−1). […] After observing treatment tolerance in the LD patients, we administered the upper-dose group (UD) 40 pmol kg^−1 min^−1 (approximately 8 μg kg^−1). Normal saline was used as placebo.
Patients were assessed at each visit by using the NCI-CTC toxicity criteria Version 3.0, including standard blood examinations (hematology, chemistry panels), and cardiology evaluations, including echocardiography at baseline and at end of study. During the treatment phase, research personnel regularly contacted patients at home during the daytime to check for their safety. […] On study day 7 and at end of study, patients were asked about their perception of their tolerance and preference of day 1 (and 7) vs day 4 (and 11) treatments.

[8] = tested on: patients with advanced incurable cancer and anorexia/cachexia; conditions: human, in vivo
Description: On study day 7 and at end of study, patients were asked about their perception of their tolerance and preference of day 1 (and 7) vs day 4 (and 11) treatments.
For exploratory analyses of patients' preference of treatment, we used the exact binominal test.

[9] = stated in discussion, no reference given; cited from earlier work
Experimental: Ghrelin levels were normal before infusion at 1030 hours. Renal function was not impaired. These unexpected findings of total, but not active, ghrelin remain unexplained at present but may indeed be without any physiological significance.

[10] = tested on: cancer patients; conditions: seven cancer patients; 5 pmol kg^−1 min^−1 for 180 min equals 3 μg kg^−1; no adverse effects; ref Neary et al, 2004; cited from earlier work
Description: In melanoma-bearing nude mice, ghrelin plasma concentration increased with cachexia progression ([Hanada et al, 2004]). In cancer patients with cachexia (various cancers, n=21 ([Garcia et al, 2005]); breast and colorectal cancer, n=18 ([Wolf et al, 2006]); lung cancer, n=21 ([Shimizu et al, 2003])), ghrelin morning fasting levels were 1.3- to 1.5-fold higher than in those without cachexia and healthy controls. In contrast, ghrelin levels were normal in subgroups of patients in one study (39%) ([Wolf et al, 2006]) and all patients in another study (gastric and colorectal cancer, n=58) ([Huang e ...

Q: Which “mean difference of the peak GH levels (of week 1 and week 2) compared to baseline” value ([1]; LD, 10 pmol kg^−1 min^−1 (about 2 μg kg^−1) i.v., SD 6, P=0.004 vs UD) does the source give for `CCCCCCCC(=O)OC[C@H](NC(=O)[C@H](CO)NC(=O)CN)C(=O)N[C@@H](Cc1ccccc1)C(=O)N[C@@H](CC(C)C)C(=O)N[C@@H](CO)C(=O)N1CCC[C@H]1C(=O)N[C@@H](CCC(=O)O)C(=O)N[C@@H](Cc1cnc[nH]1)C(=O)N[C@@H](CCC(N)=O)C(=O)N[C@@H](CCCNC(=N)N)C(=O)N[C@H](C(=O)N[C@@H](CCC(N)=O)C(=O)N[C@@H](CCC(N)=O)C(=O)N[C@@H](CCCNC(=N)N)C(=O)N[C@@H](CCCCN)C(=O)N[C@@H](CCC(=O)O)C(=O)N[C@@H](CO)C(=O)N[C@@H](CCCCN)C(=O)N[C@@H](CCCCN)C(=O)N1CCC[C@H]1C(=O)N1CCC[C@H]1C(=O)N[C@@H](C)C(=O)N[C@@H](CCCCN)C(=O)N[C@@H](CC(C)C)C(=O)N[C@@H](CCC(N)=O)C(=O)N1CCC[C@H]1C(=O)N[C@@H](CCCNC(=N)N)C(=O)O)C(C)C` [ghrelin] here?
A: 28 ng/mL

Q: And the “mean difference of the peak GH levels (of week 1 and week 2) compared to baseline” value ([1]; UD, 40 pmol kg^−1 min^−1 (about 8 μg kg^−1) i.v., SD 20, P=0.004 vs LD)?
A: 50 ng/mL

Q: What about the “peak increase of GH” value ([1]; upper-dose ghrelin 8 μg kg^−1 i.v. over 60 min, cancer patients) of the same compound?
A: 42 ng/mL

Q: And the “morning fasting total ghrelin levels 3 days after the prior ghrelin infusion compared to after placebo” value [2]?
A: elevated

Q: What about the “mean IGF-1 at day 17/18” value ([3]; LD (n=7), ±994) of the same compound?
A: 1359 pg per 100 μl

Q: What about the “mean IGF-1 at day 17/18” value ([3]; UD (n=9), ±495) of the same compound?
A: 1096 pg per 100 μl

Q: What about the “insulin-like growth factor 1 levels” value ([3]; both dose groups, over the study) of the same compound?
A: did not change

Q: What about the “plasma levels of IL-6” value [4] of the same compound?
A: did not change

Q: What about the “mean SDNN” value ([5]; week 1, placebo 78±35) of the same compound?
A: 84 ± 40 ms

Q: What about the “mean SDNN” value ([5]; week 2, placebo 80±27) of the same compound?
A: 75 ± 35 ms

Q: What about the “patients with progressive disease (PD) during the study period” value ([6]; both dose groups, crossover ghrelin/placebo) of the same compound?
A: two

Q: And the tumour-growth dynamics ([6]; short intervals of tumour measurements)?
A: no major unexpected tumour-growth dynamics

Q: What about the “abdominal pain, between infusion days (drug-related adverse events, grade 1 or 2)” value [7] of the same compound?
A: 2

Q: And the “abdominal pain, during infusion on treatment days (drug-related adverse events, grade 1 or 2)” value [7]?
A: 3

Q: And the “abnormal liver tests or low potassium, possibly or probably related adverse events” value [7]?
A: three

Q: What about the “asthenia, during infusion on treatment days (drug-related adverse events, grade 1 or 2)” value [7] of the same compound?
A: 1

Q: What about the “body temperature and oxygen saturation during and after the infusion” value [7] of the same compound?
A: remained unchanged

Q: What about the “diarrhea, between infusion days (drug-related adverse events, grade 1 or 2)” value [7] of the same compound?
A: 1

Q: What about the “dry mouth, during infusion on treatment days (drug-related adverse events, grade 1 or 2)” value [7] of the same compound?
A: 3

Q: What about the “increased CRP, possibly or probably related adverse events” value [7] of the same compound?
A: two

Q: And the “nausea, between infusion days (drug-related adverse events, grade 1 or 2)” value [7]?
A: 1

Q: What about the “shortness of breath (overeaten, aspiration), during infusion on treatment days (drug-related adverse events, grade 1 or 2)” value [7] of the same compound?
A: 1

Q: What about the “sweating, during infusion on treatment days (drug-related adverse events, grade 1 or 2)” value [7] of the same compound?
A: 2

Q: And the “vomiting, between infusion days (drug-related adverse events, grade 1 or 2)” value [7]?
A: 1

Q: And the “worsening of pre-existing neuropathy, during infusion on treatment days (drug-related adverse events, grade 1 or 2)” value [7]?
A: 1

Q: And the “mean scores for tolerability of the study medication immediately after infusion and after lunch” value [8]?
A: did not differ between ghrelin and placebo

Q: And the half-life [9]?
A: approximately 15 min

Q: What about the “energy intake with i.v. ghrelin, higher than with placebo” value [10] of the same compound?
A: 31%
